Results published in patent publication US12208098B2, “4-carbonylamino-4-phenylpyrimidine compound or pharmaceutically acceptable salt thereof” (Gachon University Of Industry-Academic Cooperation …, priority 2018, dated 2025).

Molecular target: T1, Glutamate Dehydrogenase (GDH) (Rattus norvegicus, UniProt P10860)
T1 construct: only the supernatant was collected and transferred to a new tube to obtain a cell lysate; endogenous in cells; host or cells: INS-1 cell line (lysate)
Assay: Enzyme activation experiment: GDH Activity Colorimetric Assay Kit on INS-1 cell lysate
Assay type: biochemical
Details: vehicle-treated group set to 1
Method: Enzyme Activation Experiment
A sufficient amount of cells was obtained by culturing the INS-1 cell line under general cell culture condition (37° C. 5% CO2). Immediately before use in the experiment, a culture dish of the INS-1 cells was placed on ice, the culture medium was removed, and then washed with cold phosphate-buffered saline (PBS) (WELGEME, LB 001-02) to obtain a cell pellet.
To the harvested cell pellet, an appropriate amount of ice-cold Assay Buffer contained in the Glutamate Dehydrogenase (GDH) Activity Colorimetric Assay Kit (BioVision, K729-100) was added and then homogenized in the tube.
The tube was subjected to centrifuge in a condition of 13,000 g, 4° C. for 10 minutes, and then the pellet was discarded, and only the supernatant was collected and transferred to a new tube to obtain a cell lysate. Then, the protein concentration of the cell lysate was measured using Pierce™ BCA Protein Assay kit (Thermo, 23225).
By referring to the measured protein concentration, the cell lysate was prepared by diluting its concentration to 30 μg/50 μL or 100 μg/50 μL using the Assay Buffer.
The prepared cell lysate+vehicle or compound+Reaction mix was added according to the volume determined in the protocol of the Glutamate Dehydrogenase (GDH) Activity Colorimetric Assay Kit and reacted at 37° C., and the absorbance at 450 nm was measured using a kinetic method.
The GDH activity was calculated according to the calculation formula shown in the Assay Kit, and then the activity of the group treated with the vehicle was set to 1, and the folds of the remaining groups were calculated, and the results are shown in Table 2 below and FIG. 1.

T1 sequence (P10860 54-558): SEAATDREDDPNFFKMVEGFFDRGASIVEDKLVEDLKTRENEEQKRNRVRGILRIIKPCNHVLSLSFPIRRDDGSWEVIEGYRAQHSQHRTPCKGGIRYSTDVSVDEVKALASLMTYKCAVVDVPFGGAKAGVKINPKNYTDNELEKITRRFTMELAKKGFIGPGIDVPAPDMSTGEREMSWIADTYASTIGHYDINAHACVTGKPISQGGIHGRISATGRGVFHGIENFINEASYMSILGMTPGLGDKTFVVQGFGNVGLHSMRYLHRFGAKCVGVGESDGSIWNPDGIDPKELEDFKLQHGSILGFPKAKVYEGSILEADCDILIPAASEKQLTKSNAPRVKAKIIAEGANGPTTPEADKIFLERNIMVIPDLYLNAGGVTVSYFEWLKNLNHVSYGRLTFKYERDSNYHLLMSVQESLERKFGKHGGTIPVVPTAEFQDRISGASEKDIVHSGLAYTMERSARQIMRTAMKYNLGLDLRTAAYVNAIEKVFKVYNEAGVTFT

Structure (SMILES)	Enzyme activity (fold) (compound concentration 0.2 μM)	Enzyme activity (fold) (compound concentration 2 μM)
Nc1nccc(-c2ccc(NC(=O)c3ccc(Br)cc3)cc2)n1 [Compound 6, N-(4-(2-aminopyrimidin-4-yl)phenyl)-4-bromobenzamide]	2.14	6.93
COc1cc(C(=O)Nc2ccc(-c3ccnc(N)n3)cc2)ccc1Cl [Compound 7, N-(4-(2-aminopyrimidin-4-yl)phenyl)-4-chloro-3-methoxybenzamide]	1.94	3.23
Nc1nccc(-c2ccc(NC(=O)c3ccc(Cl)cc3)cc2)n1 [Compound 8, N-(4-(2-aminopyrimidin-4-yl)phenyl)-4-chlorobenzamide]	1.34	11.05
Nc1nccc(-c2ccc(NC(=O)c3cc(Cl)cc(Cl)c3)cc2)n1 [Compound 9, N-(4-(2-aminopyrimidin-4-yl)phenyl)-3,5-dichlorobenzamide]	1.13	6.43
Nc1nccc(-c2ccc(NC(=O)c3cccc(C(F)(F)F)c3F)cc2)n1 [Compound 10, N-(4-(2-aminopyrimidin-4-yl)phenyl)-2-fluoro-3-(trifluoromethyl)benzamide]	2.08	10.83
